Measured values taken from the supplement of paper PMC13207355.

Columns and labels:
Details in all cases: exposure time: 72 h
E21 [1] = patient-derived glioblastoma stem cells of mesenchymal subtype; test: phenotypic distance (Euclidean, principal components) from DMSO controls (arbitrary units); higher = stronger morphological change
E31 [2] = patient-derived glioblastoma stem cells of proneural subtype; test: as above
FT3469 [3] = normal neural stem cell line; test: as above
E13 [4] = patient-derived glioblastoma stem cells of classical subtype; test: as above
E34 [5] = patient-derived glioblastoma stem cells of proneural subtype; test: as above
E57 [6] = patient-derived glioblastoma stem cells of mesenchymal subtype; test: as above
E28 [7] = patient-derived glioblastoma stem cells of classical subtype; test: as above
E21 [8] = test: surviving fraction (nuclei count normalised to DMSO); higher = more cells surviving (less toxic)
E31 [9] = test: as above
FT3469 [10] = test: as above
E13 [11] = test: as above
E34 [12] = test: as above
E57 [13] = test: as above
E28 [14] = test: as above
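For phenotypic distance (Euclidean, principal components) from DMSO controls in this document: cell Painting imaging in 384-well plates, CellProfiler features reduced to at least 20 principal components, Euclidean distance versus same-plate DMSO vehicle wells (0.1% v/v), median over six images per well.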
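For surviving fraction (nuclei count normalised to DMSO) in this document: nuclei counted by high-content imaging of Hoechst-stained cells in laminin-coated 384-well plates, relative to 0.1% DMSO vehicle wells, with staurosporine as cell-death control.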

OC[C@H]1NC[C@H](O)[C@@H](O)[C@@H]1O [1-Deoxynojirimycin]
Details	phenotypic distance	surviving fraction
E13 [4], 4.1 nM	0.633	–
E13 [4], 12.3 nM	0.606	–
E13 [4], 37 nM	0.865	–
E13 [4], 111.1 nM	0.487	–
E13 [4], 333.3 nM	0.742	–
E13 [4], 1000 nM	0.501	–
E13 [4], 3000 nM	0.63	–
E13 [11], 4.1 nM	–	0.97
E13 [11], 12.3 nM	–	0.945
E13 [11], 37 nM	–	0.8513
E13 [11], 111.1 nM	–	0.99
E13 [11], 333.3 nM	–	1.01
E13 [11], 1000 nM	–	1.01
E13 [11], 3000 nM	–	0.963
E21 [1], 4.1 nM	0.765	–
E21 [1], 12.3 nM	0.361	–
E21 [1], 37 nM	0.681	–
E21 [1], 111.1 nM	0.62	–
E21 [1], 333.3 nM	0.677	–
E21 [1], 1000 nM	0.652	–
E21 [1], 3000 nM	0.534	–
E21 [8], 4.1 nM	–	0.994
E21 [8], 12.3 nM	–	1.02
E21 [8], 37 nM	–	0.9516
E21 [8], 111.1 nM	–	0.977
E21 [8], 333.3 nM	–	1.04
E21 [8], 1000 nM	–	0.995
E21 [8], 3000 nM	–	0.914
E28 [7], 4.1 nM	1.27	–
E28 [7], 12.3 nM	1.73	–
E28 [7], 37 nM	0.489	–
E28 [7], 111.1 nM	0.561	–
E28 [7], 333.3 nM	0.769	–
E28 [7], 1000 nM	0.642	–
E28 [7], 3000 nM	0.664	–
E28 [14], 4.1 nM	–	1.02
E28 [14], 12.3 nM	–	1.01
E28 [14], 37 nM	–	1.009
E28 [14], 111.1 nM	–	1.05
E28 [14], 333.3 nM	–	1.04
E28 [14], 1000 nM	–	0.997
E28 [14], 3000 nM	–	1.02
E31 [2], 4.1 nM	0.644	–
E31 [2], 12.3 nM	0.558	–
E31 [2], 37 nM	0.579	–
E31 [2], 111.1 nM	0.597	–
E31 [2], 333.3 nM	0.552	–
E31 [2], 1000 nM	0.479	–
E31 [2], 3000 nM	0.614	–
E31 [9], 4.1 nM	–	0.951
E31 [9], 12.3 nM	–	0.95
E31 [9], 37 nM	–	0.979
E31 [9], 111.1 nM	–	0.918
E31 [9], 333.3 nM	–	0.988
E31 [9], 1000 nM	–	1.03
E31 [9], 3000 nM	–	0.988
E34 [5], 4.1 nM	1.35	–
E34 [5], 12.3 nM	0.664	–
E34 [5], 37 nM	0.60231	–
E34 [5], 111.1 nM	0.433	–
E34 [5], 333.3 nM	0.758	–
E34 [5], 1000 nM	0.619	–
E34 [5], 3000 nM	0.541	–
E34 [12], 4.1 nM	–	1.02
E34 [12], 12.3 nM	–	0.878
E34 [12], 37 nM	–	0.9719
E34 [12], 111.1 nM	–	0.948
E34 [12], 333.3 nM	–	0.937
E34 [12], 1000 nM	–	0.997
E34 [12], 3000 nM	–	1.02
E57 [6], 4.1 nM	0.636	–
E57 [6], 12.3 nM	0.609	–
E57 [6], 37 nM	0.696	–
E57 [6], 111.1 nM	0.505	–
E57 [6], 333.3 nM	0.518	–
E57 [6], 1000 nM	0.442	–
E57 [6], 3000 nM	0.63	–
E57 [13], 4.1 nM	–	0.9939
E57 [13], 12.3 nM	–	0.961
E57 [13], 37 nM	–	0.936
E57 [13], 111.1 nM	–	0.955
E57 [13], 333.3 nM	–	1.03
E57 [13], 1000 nM	–	0.978
E57 [13], 3000 nM	–	0.9675
FT3469 [3], 4.1 nM	0.939	–
FT3469 [3], 12.3 nM	0.685	–
FT3469 [3], 37 nM	0.554	–
FT3469 [3], 111.1 nM	0.511	–
FT3469 [3], 333.3 nM	0.634	–
FT3469 [3], 1000 nM	0.682	–
FT3469 [3], 3000 nM	0.673	–
FT3469 [10], 4.1 nM	–	0.965
FT3469 [10], 12.3 nM	–	0.951
FT3469 [10], 37 nM	–	0.953
FT3469 [10], 111.1 nM	–	1.02
FT3469 [10], 333.3 nM	–	0.889
FT3469 [10], 1000 nM	–	1.04
FT3469 [10], 3000 nM	–	0.9
